Patent publication US12350266B2, “FGFR2 inhibitors for the treatment of cholangiocarcinoma” (Janssen Pharmaceutica NV, priority 2017, dated 2025)

Columns and labels:
[1] = system: advanced cholangiocarcinoma patients; assay: LUC2001 (NCT02699606) phase 2a study: safety (adverse events)
Procedure: (§1) LUC2001 is an open-label, multicenter, phase 2a study including advanced cholangiocarcinoma subjects with FGFR alterations, based on FoundationOne testing, who failed at least 1 prior systemic treatment. The primary endpoint is objective response rate (ORR; by Response Evaluation Criteria in Solid Tumors (RECIST) version 1.1). The secondary endpoints are disease control rate (DCR), safety and pharmacokinetics. Disease is evaluated every 8 weeks until disease progression (PD). […] The dose of the drug may be modified, delayed, or terminated based on guidelines in the protocol.

[2] = compared with published Part 1 results (Tabernero 2015)
[3] = system: FGFR-aberrant cholangiocarcinoma
Source text: Sparse samples were collected in Parts 3 and 4.

[4] = system: advanced cholangiocarcinoma with FGFR alterations; conditions: 11 subjects dosed with 8 mg qd; snapshot 20 Mar. 2018
Procedure: as §1

[5] = system: patients with FGFR-aberrant cholangiocarcinoma; assay: Clinical trial NCT01703481: safety; type: in vivo, human; conditions: compared with published Part 1 results (Tabernero 2015)
Procedure: Eleven patients with FGFR-aberrant cholangiocarcinoma were treated at 9 mg QD (n=1, Part 3) or 10 mg intermittent (n=10, Part 4).

[6] = 8 mg qd, most common AEs (>30%)

Compound: COc1cc(OC)cc(N(CCNC(C)C)c2ccc3ncc(-c4cnn(C)c4)nc3c2)c1 [erdafitinib, N-(3,5-dimethoxy-phenyl)-N′-(1-methylethyl)-N-[3-(1-methyl-1H-pyrazol-4-yl)quinoxalin-6-yl]ethane-1,2-diamine]
- AE diarrhea (subjects/dosed) [1, 6]: 4/11
- AE dry mouth (subjects/dosed) [1, 6]: 7/11
- AE hyperphosphatemia (subjects/dosed) [1, 6]: 8/11
- AE nail disorder (subjects/dosed) [1, 6]: 4/11
- AE palmar-plantar erythrodysaesthesia syndrome (subjects/dosed) [1, 6]: 4/11
- AE stomatitis (subjects/dosed) [1, 6]: 7/11
- AE leading to treatment discontinuation or death ([1]; 11 subjects, 8 mg qd): no AE led to treatment discontinuation or death
- subjects who experienced AEs ([1]; 11 subjects, 8 mg qd): All subjects experienced AEs
- subjects with AEs leading to drug interruption ([1]; 11 subjects, 8 mg qd): all had AEs leading to drug interruption
- safety profile (conclusion) ([1]; patients with FGFR-aberrant advanced cholangiocarcinoma): tolerable safety profile
- PK data [2]: consistent with those from the previously published results from Part 1 of this study
- partial responses, fusion FGFR2-BICC1 ([3]; number of patients (n)): 1
- partial responses, fusion FGFR2-CCAR1 ([3]; number of patients (n)): 1
- partial responses, patients with FGFR translocations ([3]; number of patients among the 3 partial responses): 2
- PD (disease progression), number of subjects [4]: 2
- Safety data [5]: consistent with those from the previously published results from Part 1 of this study
